Patent US5436233A, “4-aminoquinazoline derivatives” (Ono Pharmaceutical Co., Ltd., priority 1993, dated 1995)
Where a name gives a salt, the structure may show the parent alone.

Columns and labels:
[1] = biological target: cGMP-PDE (Homo sapiens, UniProt O76074); assay: Inhibitory effect on cGMP-PDE; assay type: biochemical; settings: PDE IC isolated from human platelets; 3H-cGMP substrate 0.2 mM; pH 8.0; DMSO 2.5%
Method: Typically, connective tissue and adventitia were removed and 1-2 units of platelets were suspended in 10 volumes of buffer A (20 mM Tris-HCl, pH 7.5, containing 2 mM magnesium acetate, 1 mM dithiothreitol, and 5 mM Na2EDTA) using a Brinkman polytron. The proteinase inhibitors leupeptin, pepstatin A, and phenylmethyl-sulfonyl fluoride (PMSF) were also included in this buffer (final concentration of 100 nM each). The homogenate was centrifuged at 100,000g for 60 minutes. The supernatant was then removed and filtered through four layers of cheesecloth. The supernatant was applied to a DWAE-Trisacryl M column. The column was washed with several bed volumes of buffer B (20 mM Tris-HCl, pH 7.5, containing 2 mM magnesium acetate, 1 mM dithiothreitol, and proteinase inhibitors) and eluted by two successive linear NaCl gradients (0.05-0.15M, 300 ml total; 0.15-0.40M, 200 ml total). Five milliliter fractions were collected and assayed for cyclic GMP PDE activity.
The concentration of substrate (^3 H-cGMP) was 0.2 mM. Compounds of the present invention were dissolved in dimethyl sulfoxide (DMSO) at a final concentration of 2.5%. This concentration of DMSO inhibited enzyme activity by approximately 10%.

[2] = biological target: T1, TXA2 synthetase (Rattus norvegicus, UniProt P49430); assay: Inhibitory effect on TXA2 synthetase (TXB2 synthesis in A23187-stimulated heparinized whole blood); assay type: cell-based, Male Wistar rats; settings: 37° C, Ca ionophore A23187 30 μM, TXB2 by EIA
T1 construct: whole blood was collected from abdominal aorta; from tissue; host or cells: freshly drawn heparinized whole blood of male Wistar rats
T1 sequence (P49430 1-533): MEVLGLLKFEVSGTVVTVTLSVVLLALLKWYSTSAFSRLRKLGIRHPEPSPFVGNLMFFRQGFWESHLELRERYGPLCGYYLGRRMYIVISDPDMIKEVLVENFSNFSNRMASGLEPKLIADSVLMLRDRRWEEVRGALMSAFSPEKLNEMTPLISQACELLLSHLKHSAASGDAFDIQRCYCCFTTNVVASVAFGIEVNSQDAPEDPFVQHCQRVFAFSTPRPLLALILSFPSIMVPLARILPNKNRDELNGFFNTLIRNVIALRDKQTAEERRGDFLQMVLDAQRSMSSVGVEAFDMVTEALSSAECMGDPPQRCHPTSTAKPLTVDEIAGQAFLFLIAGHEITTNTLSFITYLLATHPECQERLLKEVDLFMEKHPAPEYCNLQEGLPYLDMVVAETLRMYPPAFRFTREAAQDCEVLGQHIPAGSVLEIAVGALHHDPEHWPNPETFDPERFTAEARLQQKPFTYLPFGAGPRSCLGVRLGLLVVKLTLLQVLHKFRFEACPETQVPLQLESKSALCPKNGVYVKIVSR
Method: Male Wistar rats were starved overnight. Five hundreds microliter of heparinized (10 U/mL) whole blood was collected from abdominal aorta using polyethylene syringe (needle: 22 or 26G). The blood freshly drawn from animal was preincubated with 5 μL of test compound at 37° C. Five minutes later, 2.5 μL of 6 mM of Ca ionophore A23187 (final concentration of 30 μM) was added into tube, and incubation mixture was further incubated for 15 min. The reaction was terminated by centrifugation of tubes at 12,000 rpm for 2 min. TXB2 content in the supernatant was determined by EIA as follows.
One milliliter of 0.5M glycine-HCl buffer (pH 3.2) was added to 100 μL of sample. The samples were mixed well and centrifuged at 1,700 G for 10 min at 4° C. The extracted supernatant was applied to a SEP-PAK (registered Trade Mark) C18 cartridge (Waters Assoc.). After washing with 10 mL of distilled water followed by 10 mL each of 15% ethanol and petroleum ether, the sample was eluted with 3 mL of ethyl acetate. The ethyl acetate fraction was evaporated to dryness under gentle N2 stream and the residue was dissolved in EIA buffer (final volume of 1 mL) following the addition of 300 μL of 0.01M NaHCO3 -NaOH buffer (pH 10.0). EIA for TXB2 was carried out according to a legend attached to the kit (Chyman Chemical Co., Inc.). Overall recovery of TXB^2 in this extraction procedure was 90%. […]

| IC50 [1] [nM] | IC50 [2] [nM] | Compound |
| --- | --- | --- |
| 2400 |  | CN(C)c1ccc(CNc2nc(-c3cccnc3)nc3ccccc23)cc1 [3(o), 4-(4-(N,N-dimethylamino)phenylmethyl)amino-2-(3-pyridyl)quinazoline trihydrochloride] |
| 300 |  | c1ccc(CNc2nc(Cn3ccnc3)nc3ccccc23)cc1 [6(b), 4-phenylmethylamino-2-((1-imidazolyl)methyl)quinazoline dihydrochloride] |
| 135 |  | CN(C)S(=O)(=O)c1ccc2nc(-n3ccnc3)nc(NCc3ccccc3)c2c1 [6(j), 6-dimethylaminosulfonyl-4-phenylmethylamino-2-(1-imidazolyl)quinazoline hydrochloride] |
| 200 |  | C(=C\c1nc(NCc2ccccc2)c2ccccc2n1)/c1cccnc1 [Example 7, 4-phenylmethylamino-2-(2-(3-pyridyl)vinyl)quinazoline] |
| 46 | 2400 | C#Cc1ccc2nc(-n3ccnc3)nc(NCCOC)c2c1 [Example 18, 6-ethynyl-4-(2-methoxyethyl)amino-2-(1-imidazolyl)quinazoline] |

| Compound | IC50 [1] [nM] | IC50 [2] [nM] |
| --- | --- | --- |
| C#Cc1ccc2nc(-n3ccnc3)nc(NCc3ccccc3)c2c1 [18(b), 2-(1-imidazolyl)-4-phenylmethylamino-6-ethynylquinazoline dihydrochloride] | 0.53 |  |
